Assay results taken from patent US8859796B1, “Synthetic and purification methods for phosphaplatin compounds and uses thereof” (Phosplatin Therapeutics LLC, priority 2012, dated 2014).

Tests used:
[1] = Long-term stability study of the recrystallized (R,R)-DACH-2 sample; format: physicochemical; conditions: not exceeding 25° C., humidity 60±5%
Procedure: A long-term stability study of the recrystallized sample was conducted.

[2] = Stability of saturated aqueous solutions of (R,R)-DACH-2 at pH 2, composition by HPLC; format: physicochemical
Procedure: The resultant suspension was stirred for 30 min and the pH adjusted to 2 with 0.1M nitric acid. The solution was filtered through a 0.45 micron Whatman polypropylene filter to afford a clear solution. Samples of the solution were stored at 25° C. and 5° C. At the time intervals shown in Tables 2 and 3 the solution composition was determined by HPLC.

[3] = after 14 months, initial 0.01% (wt/wt)
[4] = aqueous solution, pH 2, 5° C., 0.1 h
[5] = aqueous solution, pH 2, 5° C., 2 h
[6] = aqueous solution, pH 2, 5° C., 4 h
[7] = aqueous solution, pH 2, 5° C., 8 h
[8] = aqueous solution, pH 2, 5° C., 16 h
[9] = aqueous solution, pH 2, 5° C., 24 h
[10] = aqueous solution, pH 2, 5° C., 48 h
[11] = aqueous solution, pH 2, 25° C., 0.1 h
[12] = aqueous solution, pH 2, 25° C., 2 h
[13] = aqueous solution, pH 2, 25° C., 4 h
[14] = aqueous solution, pH 2, 25° C., 8 h
[15] = aqueous solution, pH 2, 25° C., 16 h
[16] = aqueous solution, pH 2, 25° C., 24 h
[17] = aqueous solution, pH 2, 25° C., 48 h

- (R,R)-DACH-2 purity on re-testing ([1]; after 14 months, HDPE bottle, initial 99.4% w/w): 98.4 % (wt/wt)
- chloride content on re-testing [1, 3]: 0.01% (wt/wt)
- nitrate content on re-testing [1, 3]: 0.01% (wt/wt)
- pyrophosphate content on re-testing ([1]; after 14 months, initial 0.17% (wt/wt)): 0.17% (wt/wt)
- DACH-Pt—Cl2 content on re-testing ([1]; after 14 months, initial not detected): not detected
- Long-term stability, conclusion in words ([1]; purified solid, 14 months): stable
- (R,R)-DACH-2 [2, 4]: 12.8 HPLC Area %
- (R,R)-DACH-2 concentration [2, 4]: 0.1 mg/mL
- (R,R)-DACH-2 dimer [2, 4]: 16.8 HPLC Area %
- (R,R-DACH-2 water adduct) [2, 4]: 2.5 HPLC Area %
- Pt-DACH-diaquo [2, 4]: 68.3 HPLC Area %
- (R,R)-DACH-2 [2, 5]: 11.7 HPLC Area %
- (R,R)-DACH-2 concentration [2, 5]: 2 mg/mL
- (R,R)-DACH-2 dimer [2, 5]: 24.2 HPLC Area %
- (R,R-DACH-2 water adduct) [2, 5]: 2.22 HPLC Area %
- Pt-DACH-diaquo [2, 5]: 60.9 HPLC Area %
- (R,R)-DACH-2 [2, 6]: 10.6 HPLC Area %
- (R,R)-DACH-2 concentration [2, 6]: 4 mg/mL
- (R,R)-DACH-2 dimer [2, 6]: 29.2 HPLC Area %
- (R,R-DACH-2 water adduct) [2, 6]: 2.02 HPLC Area %
- Pt-DACH-diaquo [2, 6]: 57.2 HPLC Area %
- (R,R)-DACH-2 [2, 7]: 9.6 HPLC Area %
- (R,R)-DACH-2 concentration [2, 7]: 8 mg/mL
- (R,R)-DACH-2 dimer [2, 7]: 33.5 HPLC Area %
- (R,R-DACH-2 water adduct) [2, 7]: 1.81 HPLC Area %
- Pt-DACH-diaquo [2, 7]: 53.6 HPLC Area %
- (R,R)-DACH-2 [2, 8]: 9.3 HPLC Area %
- (R,R)-DACH-2 concentration [2, 8]: 16 mg/mL
- (R,R)-DACH-2 dimer [2, 8]: 35.1 HPLC Area %
- (R,R-DACH-2 water adduct) [2, 8]: 1.63 HPLC Area %
- Pt-DACH-diaquo [2, 8]: 52.5 HPLC Area %
- (R,R)-DACH-2 [2, 9]: 9.4 HPLC Area %
- (R,R)-DACH-2 concentration [2, 9]: 24 mg/mL
- (R,R)-DACH-2 dimer [2, 9]: 36.2 HPLC Area %
- (R,R-DACH-2 water adduct) [2, 9]: 1.43 HPLC Area %
- Pt-DACH-diaquo [2, 9]: 51.5 HPLC Area %
- (R,R)-DACH-2 [2, 10]: 9.3 HPLC Area %
- (R,R)-DACH-2 concentration [2, 10]: 48 mg/mL
- (R,R)-DACH-2 dimer [2, 10]: 34.7 HPLC Area %
- (R,R-DACH-2 water adduct) [2, 10]: 1.27 HPLC Area %
- Pt-DACH-diaquo [2, 10]: 53.8 HPLC Area %
- (R,R)-DACH-2 [2, 11]: 67.1 HPLC Area %
- (R,R)-DACH-2 concentration [2, 11]: 2.38 mg/mL
- (R,R)-DACH-2 dimer [2, 11]: 2.9 HPLC Area %
- (R,R-DACH-2 water adduct) [2, 11]: 13.3 HPLC Area %
- Pt-DACH-diaquo [2, 11]: 16.7 HPLC Area %
- (R,R)-DACH-2 [2, 12]: 50.6 HPLC Area %
- (R,R)-DACH-2 concentration [2, 12]: 1.75 mg/mL
- (R,R)-DACH-2 dimer [2, 12]: 14.3 HPLC Area %
- (R,R-DACH-2 water adduct) [2, 12]: 9.3 HPLC Area %
- Pt-DACH-diaquo [2, 12]: 25.8 HPLC Area %
- (R,R)-DACH-2 [2, 13]: 48.7 HPLC Area %
- (R,R)-DACH-2 concentration [2, 13]: 1.59 mg/mL
- (R,R)-DACH-2 dimer [2, 13]: 17.4 HPLC Area %
- (R,R-DACH-2 water adduct) [2, 13]: 9.2 HPLC Area %
- Pt-DACH-diaquo [2, 13]: 24.8 HPLC Area %
- (R,R)-DACH-2 [2, 14]: 51.6 HPLC Area %
- (R,R)-DACH-2 concentration [2, 14]: 1.41 mg/mL
- (R,R)-DACH-2 dimer [2, 14]: 13.4 HPLC Area %
- (R,R-DACH-2 water adduct) [2, 14]: 9.5 HPLC Area %
- Pt-DACH-diaquo [2, 14]: 25.5 HPLC Area %
- (R,R)-DACH-2 [2, 15]: 56.5 HPLC Area %
- (R,R)-DACH-2 concentration [2, 15]: 1.04 mg/mL
- (R,R)-DACH-2 dimer [2, 15]: 8.1 HPLC Area %
- (R,R-DACH-2 water adduct) [2, 15]: 9.8 HPLC Area %
- Pt-DACH-diaquo [2, 15]: 25.6 HPLC Area %
- (R,R)-DACH-2 [2, 16]: 57.6 HPLC Area %
- (R,R)-DACH-2 concentration [2, 16]: 0.88 mg/mL
- (R,R)-DACH-2 dimer [2, 16]: 7 HPLC Area %
- (R,R-DACH-2 water adduct) [2, 16]: 10.1 HPLC Area %
- Pt-DACH-diaquo [2, 16]: 25.3 HPLC Area %
- (R,R)-DACH-2 [2, 17]: 59.5 HPLC Area %
- (R,R)-DACH-2 concentration [2, 17]: 0.62 mg/mL
- (R,R)-DACH-2 dimer [2, 17]: 5.5 HPLC Area %
- (R,R-DACH-2 water adduct) [2, 17]: 9.3 HPLC Area %
- Pt-DACH-diaquo [2, 17]: 25.9 HPLC Area %
- Degradation rate, conclusion in words ([2]; aqueous solution, pH 2, as temperature is reduced (25° C. to 5° C.)): significantly reduced
- Stability in aqueous solution, conclusion in words ([2]; saturated aqueous solution, pH 2): readily suffers hydrolytic degradation
Structure (SMILES): NC1CCCCC1N.O=P([O-])([O-])OP(=O)(O)O.[Pt+2] [(R,R)-DACH-2, cyclohexanediamine (pyrophosphato)platinum (II)]
